Measured values taken from publication PMC8041276 (ACS Chemical Neuroscience, 2021).
Where two headings read alike, the source gives them in different places.

What was measured:
[1] = target: 5-HT6R (Homo sapiens, UniProt P50406); assay: Inhibition of 5-CT-stimulated cAMP production in 1321N1 cells; assay type: cell-based; design: expressed in transfected cells; conditions: antagonism of 5-CT (1000 nM)-stimulated cAMP
Description: The effect of compounds 18, 22, 27, and 28 on adenylate cyclase was examined in 1321N1 cells expressing the 5-HT6R.
The properties of compounds 18, 22, 27, 28 to inhibit cAMP production induced by 5-CT (1000 nM), a 5-HT6R agonist, were evaluated. Compounds were tested in triplicate at eight concentrations (10^–11–10^–4 M). The level of cAMP was measured using frozen recombinant 1321N1 cells expressing the human serotonin 5-HT6R (PerkinElmer). Total cAMP was measured using the LANCE cAMP detection kit (PerkinElmer), according to the manufacturer’s recommendations. For quantification of cAMP levels, 2000 cells/well (5 μL) were incubated with a mixture of compounds (5 μL) for 30 min at room temperature in 384-well white opaque microtiter plate. After incubation, the reaction was stopped and cells were lysed by the addition of 10 μL of working solution (5 μL of Eu-cAMP and 5 μL of ULight-anti-cAMP) for 1 h at room temperature. Time-resolved fluorescence resonance energy transfer (TR-FRET) was detected by an Infinite M1000 Pro (Tecan) using instrument settings from LANCE cAMP detection kit manual. Kb values were calculated from Cheng–Prusoff equation specific for the analysis of functional inhibition curves: Kb = IC50/(1 + A/EC50) where A represents agonist concentration, IC50 the concentration of antagonist producing a 50% reduction in the response to agonist, and EC50 the agonist concentration which causes a half of the maximal response.[44]

[2] = In vivo pharmacokinetic study, plasma and brain; design: species or system male Wistar rats; conditions: male, Wistar, po, rat; for AUC(0-t) / Cmax / MRT / Tmax / half-life: 10 mg/kg p.o.; for half-life: read-out: t0.5 (terminal half-life)
Description: Subsequently, the pharmacokinetic profile of 27 and 28 was assessed in male Wistar rats after single intragastric administration at the dose of 10 mg/kg. The studied compounds were rapidly absorbed and crossed the blood–brain barrier, reaching the Cmax in 5 min in both plasma and brain.
For LC–MS/MS analyses, an HPLC Nexera system (Shimadzu, Kyoto, Japan) combined with the triple quadrupole API 3200 mass spectrometer (SCIEX, Framingham, MA, USA) interfaced via an electrospray source and controlled by Analyst software version 1.5.2 (SCIEX, Framingham, MA, USA) was applied.
The chromatographic separation was performed on Acclaim Polar Advantage II (3.0 mm × 74 mm, 3 μm, 120A, Dionex, USA) analytical column using the mobile phase composed of eluent A, HPLC grade acetonitrile acidified with 0.1% (v/v) formic acid, and eluent B, HPLC grade water with 0.1% (v/v) formic acid. The elution gradient started with 90% of eluent B, increasing to 90% of eluent A over 5 min, returned to 90% of eluent B over 5 min, and maintained at 90% of eluent B for 5 min. The mobile phase flow rate was set at 400 μL/min. The injection volume was 20 μL, and the total time of analysis was 15 min. The temperatures of the column thermostat and the autosampler were set at 40 and 10 °C, respectively.
For increased sensitivity and selectivity, the MS/MS data acquisition was performed in the selected reaction monitoring (SRM) mode. The ions measured were m/z 585.1 (Q1) and m/z 516.2 (Q3) for compounds 27 and 28 and m/z 305 (Q1) and m/z 248 (Q3) for IS. The quantification was done via peak area ratio.
Protein precipitation with acetonitrile was used for purification of plasma and brain homogenates. The whole brain was homogenized using an electric tissue homogenizer in an appropriate amount of phosphate buffer (pH 7.4) in 1:2.5 ratio. Thereafter, a volume of 100 μL of plasma or brain homogenate was transferred to 2 mL Eppendorf tubes, and a 5 μL aliquot of the internal standard (IS, PH002437, Merck, Darmstadt, Germany) in working solution (5 μg/mL) was added and vortex-mixed for 10 s. Thereafter, 200 μL of acetonitrile was added and mixed for 20 min, followed by centrifugation (28 672g) for 10 min at 4 °C. The supernatant was transferred to chromatographic vials, and 20 μL was injected into the analytical column.
A group of 64 male, 8-week-old, Wistar strain outbred rats weighing between 200 and 220 g each were purchased from the Animal House at the Faculty of Pharmacy, Jagiellonian University Medical College, Krakow (Poland) and housed in standard polycarbonate cages, in groups of four animals per cage. Environmental conditions during the study were constant: relative humidity 50–60%, temperature 22 ± 2 °C, normal 12 h light–dark cycle (7 a.m. to 7 p.m. light). Standard rodent chow and water were available ad libitum. Compounds 27 and 28 were dissolved in saline and administered by intragastric gavage at a dose of 10 mg/kg, and the animals were sacrificed at specific time-points: 0 min, predose (n = 4), 5 min (n = 4), 15 min (n = 4), 30 min (n = 4), 60 min (n = 4), 120 min (n = 4), 240 min (n = 4), and 480 min (n = 4) after administration. Animals were deeply anaesthetized by ip injections of 50 mg/kg ketamine plus 8 mg/kg xylazine before sacrifice. First, the blood was collected into heparinized tubes, and the blood samples were centrifuged at 1000g for 10 min to obtain plasma. Following the animals’ euthanasia, the whole brain was collected. The plasma and brain samples were immediately frozen at −80 °C for future analysis. All experimental procedures were carried out in accordance with EU Directive 2010/63/EU and approved by the I Local Ethics Committee for Experiments on Animals of the Jagiellonian University in Krakow, Poland (No. 83/2018).

5-HT6R, sequence (P50406 whole entry): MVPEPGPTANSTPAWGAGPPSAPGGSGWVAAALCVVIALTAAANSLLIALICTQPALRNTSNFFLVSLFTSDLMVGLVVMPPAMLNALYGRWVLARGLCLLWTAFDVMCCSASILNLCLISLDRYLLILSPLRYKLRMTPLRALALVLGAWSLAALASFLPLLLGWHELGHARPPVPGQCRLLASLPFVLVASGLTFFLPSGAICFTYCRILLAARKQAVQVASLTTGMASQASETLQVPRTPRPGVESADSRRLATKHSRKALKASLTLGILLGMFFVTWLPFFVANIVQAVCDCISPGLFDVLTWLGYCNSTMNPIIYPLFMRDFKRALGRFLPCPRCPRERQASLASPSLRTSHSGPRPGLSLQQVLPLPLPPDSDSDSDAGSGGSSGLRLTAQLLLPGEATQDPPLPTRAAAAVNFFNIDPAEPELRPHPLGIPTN

SMILES	Kb [1] [nM]	AUC(0-t) ([2]; brain) [ng·h/mL]	Cmax ([2]; brain) [ng/g]	MRT ([2]; brain) [h]	Tmax ([2]; brain) [min]	AUC(0-t) ([2]; plasma) [ng·h/mL]	Cmax ([2]; plasma) [ng/mL]	MRT ([2]; plasma) [h]	Tmax ([2]; plasma) [min]	half-life ([2]; plasma) [h]	Kp ([2]; brain/plasma, 10 mg/kg intragastric, read-out: brain/plasma ratio)	half-life ([2]; brain) [h]
O=C(N[C@H]1CCNC1)c1ccn(S(=O)(=O)c2cccc(Cl)c2)c1-c1ccc(F)cc1 [Compound 28, (S)-2-(4-Fluorophenyl)-1-[(3-chlorophenyl)sulfonyl]-N-(pyrrolidin-3-yl)-1H-pyrrole-3-carboxamide]	7.6	289	51.7	4.43	5	3390	3500	3.35	5	4.95		
O=C(N[C@@H]1CCNC1)c1ccn(S(=O)(=O)c2cccc(Cl)c2)c1-c1ccc(F)cc1 [Compound 27, (R)-2-(4-Fluorophenyl)-1-[(3-chlorophenyl)sulfonyl]-N-(pyrrolidin-3-yl)-1H-pyrrole-3-carboxamide]	11.4	812	427	3.02	5	1290	1040	2.72	5	1.96	0.63	4.18
